Molecular target: T1, ΔF508-CFTR (Homo sapiens, UniProt P13569, DEL508-508)
T1 construct: expressed in transfected cells
Assay: Membrane potential optical assay for ΔF508-CFTR potentiation
Format: cell-based
Conditions: NIH 3T3 cells
From the text: The assay utilizes fluorescent voltage sensing dyes to measure changes in membrane potential using a fluorescent plate reader (e.g., FLIPR III, Molecular Devices, Inc.) as a readout for increase in functional ΔF508-CFTR in NIH 3T3 cells. The driving force for the response is the creation of a chloride ion gradient in conjunction with channel activation by a single liquid addition step after the cells have previously been treated with compounds and subsequently loaded with a voltage sensing dye. To identify potentiators of ΔF508-CFTR, a double-addition HTS assay format was developed. This HTS assay utilizes fluorescent voltage sensing dyes to measure changes in membrane potential on the FLIPR III as a measurement for increase in gating (conductance) of ΔF508 CFTR in temperature-corrected ΔF508 CFTR NIH 3T3 cells. The driving force for the response is a Cl^− ion gradient in conjunction with channel activation with forskolin in a single liquid addition step using a fluorescent plate reader such as FLIPR III after the cells have previously been treated with potentiator compounds (or DMSO vehicle control) and subsequently loaded with a redistribution dye. Bath Solution #1: (in mM) NaCl 160, KCl 4.5, CaCl2 2, MgCl2 1, HEPES 10, pH 7.4 with NaOH. Chloride-free bath solution: Chloride salts in Bath Solution #1 (above) are substituted with gluconate salts. […]

T1 sequence (P13569 with tags, fused parts or gaps DEL508-508): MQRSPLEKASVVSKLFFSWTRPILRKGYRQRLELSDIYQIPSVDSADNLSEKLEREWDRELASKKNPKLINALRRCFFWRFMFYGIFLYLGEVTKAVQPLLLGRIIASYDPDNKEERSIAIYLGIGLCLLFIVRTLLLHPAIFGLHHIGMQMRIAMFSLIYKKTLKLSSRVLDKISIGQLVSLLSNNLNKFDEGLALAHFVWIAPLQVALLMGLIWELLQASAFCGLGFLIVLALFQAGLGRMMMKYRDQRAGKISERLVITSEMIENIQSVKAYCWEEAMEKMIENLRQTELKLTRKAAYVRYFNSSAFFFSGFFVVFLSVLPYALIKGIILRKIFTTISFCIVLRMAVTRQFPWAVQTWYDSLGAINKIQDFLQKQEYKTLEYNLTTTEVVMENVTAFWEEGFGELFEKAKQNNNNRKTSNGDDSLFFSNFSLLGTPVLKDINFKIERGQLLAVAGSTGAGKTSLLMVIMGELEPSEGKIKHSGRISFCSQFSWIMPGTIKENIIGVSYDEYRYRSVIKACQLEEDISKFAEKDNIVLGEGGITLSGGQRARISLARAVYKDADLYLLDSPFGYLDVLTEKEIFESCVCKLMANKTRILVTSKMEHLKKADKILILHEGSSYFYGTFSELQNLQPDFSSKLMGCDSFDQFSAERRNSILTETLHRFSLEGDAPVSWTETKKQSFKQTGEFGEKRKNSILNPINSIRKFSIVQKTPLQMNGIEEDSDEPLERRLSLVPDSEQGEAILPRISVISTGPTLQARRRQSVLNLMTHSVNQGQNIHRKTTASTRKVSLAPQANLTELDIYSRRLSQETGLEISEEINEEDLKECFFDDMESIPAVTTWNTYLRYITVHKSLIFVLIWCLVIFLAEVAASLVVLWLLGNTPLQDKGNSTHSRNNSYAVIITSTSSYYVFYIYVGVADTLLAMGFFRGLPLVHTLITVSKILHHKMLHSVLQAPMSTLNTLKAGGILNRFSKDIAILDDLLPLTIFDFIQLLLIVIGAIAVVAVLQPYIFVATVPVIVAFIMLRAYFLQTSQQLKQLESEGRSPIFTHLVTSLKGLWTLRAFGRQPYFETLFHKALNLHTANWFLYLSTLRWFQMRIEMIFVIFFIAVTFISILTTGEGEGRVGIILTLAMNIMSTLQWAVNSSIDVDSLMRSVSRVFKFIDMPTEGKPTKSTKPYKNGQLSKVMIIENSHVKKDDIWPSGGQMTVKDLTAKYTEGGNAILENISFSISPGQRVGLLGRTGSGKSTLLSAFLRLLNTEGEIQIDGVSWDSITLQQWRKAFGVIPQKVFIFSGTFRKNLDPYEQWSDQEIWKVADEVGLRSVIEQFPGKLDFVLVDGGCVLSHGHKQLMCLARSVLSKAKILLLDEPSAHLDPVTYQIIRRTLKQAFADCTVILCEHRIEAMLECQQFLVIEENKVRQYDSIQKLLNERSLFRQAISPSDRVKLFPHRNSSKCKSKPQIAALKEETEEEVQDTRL

EC50: < 10 µM
Structure (SMILES): CC(C)(C)c1cc(C(C)(C)C)c(NC(=O)c2c[nH]c3ccccc3c2=O)cc1O [Compound 1, N-[2,4-bis(1,1-dimethylethyl)-5-hydroxyphenyl]-1,4-dihydro-4-oxoquinoline-3-carboxamide]

— patent US20140336219A2, “Pharmaceutical Compositions and Administrations Thereof” (Vertex Pharmaceuticals Incorporated, priority 2011, published 2014)
